Where two headings read alike, the source gives them in different places.
Molecular target: T1, rat N-type channels (α1B+α2δ+β1b subunits) (Rattus norvegicus, UniProt Q02294)
T1 construct: expressed in transfected cells
Experiment: Whole cell patch clamp, N-type calcium channel block in HEK 293 cells
Type: cell-based
Protocol: Antagonist activity was measured using whole cell patch recordings on human embryonic kidney cells either stably or transiently expressing rat N-type channels (α1B+[…]+β1b subunits) with 5 mM barium as a charge carrier. Alternatively, cells either stably or transiently expressing rat L-type channels (α1C+α2δ+β1b cDNA subunits) and P/Q-type channels (α1A+α2δ+β1b cDNA subunits)
HEK 293 cells were transfected by a standard calcium-phosphate-DNA coprecipitation method using the rat α1B+β1b+α2δ N-type calcium channel subunits in a vertebrate expression vector (for example, see Current Protocols in Molecular Biology).
After an incubation period of from 24 to 72 hrs the culture medium was removed and replaced with external recording solution (see below). Whole cell patch clamp experiments were performed using an Axopatch 200B amplifier (Axon Instruments, Burlingame, Calif.) linked to an IBM compatible personal computer equipped with pCLAMP software. […] Current data shown were elicited by a train of 100 ms test pulses at 0.066 Hz from −100 mV and/or −80 mV to various potentials (min. −20 mV, max. +30 mV). Drugs were perfused directly into the vicinity of the cells using a microperfusion system.
Normalized dose-response curves were fit (Sigmaplot 4.0, SPSS Inc., Chicago, Ill.) by the Hill equation to determine IC50 values. Steady-state inactivation curves were plotted as the normalized test pulse amplitude following 5 s inactivating prepulses at +10 mV increments.
Alternatively, N-type calcium channels (α1B+α2δ+β1b cDNA subunits), L-type channels (α1C+α2δ+β1b cDNA subunits) and P/Q-type channels (α1A+α2δ+β1b cDNA subunits) were transiently expressed in HEK 293 cells. Briefly, cells were cultured in Dulbecco's modified eagle medium (DMEM) supplemented with 10% fetal bovine serum, 200 U/ml penicillin and 0.2 mg/ml streptomycin at 37° C. with 5% CO2. […] At 12 hours the medium was replaced and the cells transiently transfected using a standard calcium phosphate protocol and the appropriate calcium channel cDNAs. Fresh DMEM was supplied and the cells transferred to 28° C./5% CO2.
Whole cell patch clamp experiments were performed using an Axopatch 200B amplifier (Axon Instruments, Burlingame, Calif.) linked to a personal computer equipped with pCLAMP software. […] Currents were typically elicited from a holding potential of −80 mV to +10 mV using Clampex software (Axon Instruments). […] The compounds were then applied during the low frequency pulse trains for two to three minutes to assess tonic block, and subsequently the pulse frequency was increased to 0.2 Hz to assess frequency dependent block. Data were analyzed using Clampfit (Axon Instruments) and SigmaPlot 4.0 (Jandel Scientific).

[1] = 0.067 Hz, read-out: IC50 for N-type Calcium Channel Block (0.067 Hz)
[2] = 0.2 Hz, read-out: IC50 for N-type Calcium Channel Block (0.2 Hz)

T1 sequence (Q02294 whole entry): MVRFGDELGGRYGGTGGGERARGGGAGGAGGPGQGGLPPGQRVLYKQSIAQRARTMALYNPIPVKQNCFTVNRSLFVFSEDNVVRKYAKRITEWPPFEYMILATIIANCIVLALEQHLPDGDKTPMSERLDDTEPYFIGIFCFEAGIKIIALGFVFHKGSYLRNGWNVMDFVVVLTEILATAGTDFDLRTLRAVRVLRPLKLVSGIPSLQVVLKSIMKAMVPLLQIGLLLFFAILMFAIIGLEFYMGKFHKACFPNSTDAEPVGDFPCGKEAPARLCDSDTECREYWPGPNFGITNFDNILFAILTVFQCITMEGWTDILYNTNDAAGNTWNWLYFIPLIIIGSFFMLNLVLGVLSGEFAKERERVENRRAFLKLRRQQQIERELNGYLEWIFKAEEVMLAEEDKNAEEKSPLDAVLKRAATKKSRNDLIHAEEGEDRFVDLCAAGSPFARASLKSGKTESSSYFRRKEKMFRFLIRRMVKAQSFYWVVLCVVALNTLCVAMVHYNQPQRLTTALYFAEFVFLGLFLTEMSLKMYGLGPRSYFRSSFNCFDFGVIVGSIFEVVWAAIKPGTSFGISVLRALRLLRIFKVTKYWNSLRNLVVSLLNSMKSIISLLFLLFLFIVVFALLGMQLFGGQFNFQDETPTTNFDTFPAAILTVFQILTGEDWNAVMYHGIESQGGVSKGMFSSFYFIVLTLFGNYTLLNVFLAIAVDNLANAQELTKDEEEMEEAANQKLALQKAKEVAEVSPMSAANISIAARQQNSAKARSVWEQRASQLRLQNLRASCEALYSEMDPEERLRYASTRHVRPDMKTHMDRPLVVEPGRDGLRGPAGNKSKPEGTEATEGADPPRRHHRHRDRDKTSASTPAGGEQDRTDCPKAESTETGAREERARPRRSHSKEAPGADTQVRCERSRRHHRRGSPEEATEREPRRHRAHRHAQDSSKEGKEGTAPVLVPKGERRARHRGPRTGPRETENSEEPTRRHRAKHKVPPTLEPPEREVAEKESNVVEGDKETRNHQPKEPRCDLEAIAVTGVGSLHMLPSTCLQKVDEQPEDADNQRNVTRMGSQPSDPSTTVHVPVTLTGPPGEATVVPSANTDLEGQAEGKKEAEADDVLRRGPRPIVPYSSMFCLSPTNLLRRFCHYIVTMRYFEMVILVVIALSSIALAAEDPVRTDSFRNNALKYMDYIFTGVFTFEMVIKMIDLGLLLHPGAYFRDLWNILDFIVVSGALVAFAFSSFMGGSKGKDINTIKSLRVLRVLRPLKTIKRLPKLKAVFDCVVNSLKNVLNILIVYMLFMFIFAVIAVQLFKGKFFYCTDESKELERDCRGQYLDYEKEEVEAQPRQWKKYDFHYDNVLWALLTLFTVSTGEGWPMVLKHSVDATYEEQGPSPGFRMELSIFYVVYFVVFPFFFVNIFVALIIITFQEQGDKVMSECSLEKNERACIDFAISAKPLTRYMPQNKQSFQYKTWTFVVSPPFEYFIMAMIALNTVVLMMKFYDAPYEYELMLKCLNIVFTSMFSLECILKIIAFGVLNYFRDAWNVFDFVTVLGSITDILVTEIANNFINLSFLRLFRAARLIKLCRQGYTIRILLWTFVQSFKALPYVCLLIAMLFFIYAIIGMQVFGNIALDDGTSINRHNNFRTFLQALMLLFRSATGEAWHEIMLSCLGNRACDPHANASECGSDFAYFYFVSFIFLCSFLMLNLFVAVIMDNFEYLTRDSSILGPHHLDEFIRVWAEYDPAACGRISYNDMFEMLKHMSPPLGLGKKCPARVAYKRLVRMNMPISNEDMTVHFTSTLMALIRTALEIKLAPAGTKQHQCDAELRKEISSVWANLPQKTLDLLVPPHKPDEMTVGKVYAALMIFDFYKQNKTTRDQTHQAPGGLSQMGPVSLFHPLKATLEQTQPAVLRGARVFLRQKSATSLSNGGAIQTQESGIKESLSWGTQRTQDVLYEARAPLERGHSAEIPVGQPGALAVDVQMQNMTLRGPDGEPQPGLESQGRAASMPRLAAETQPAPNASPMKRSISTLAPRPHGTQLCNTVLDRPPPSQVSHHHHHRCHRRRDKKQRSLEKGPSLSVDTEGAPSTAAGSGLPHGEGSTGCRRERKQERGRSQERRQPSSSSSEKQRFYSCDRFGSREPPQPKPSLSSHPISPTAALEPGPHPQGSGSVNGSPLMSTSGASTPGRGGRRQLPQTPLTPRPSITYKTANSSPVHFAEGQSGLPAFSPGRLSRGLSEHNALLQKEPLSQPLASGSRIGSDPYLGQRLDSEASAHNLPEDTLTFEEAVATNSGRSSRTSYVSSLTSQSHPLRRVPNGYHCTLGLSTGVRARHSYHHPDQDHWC
T1 sequence (P54290 25-944 partner limits assumed): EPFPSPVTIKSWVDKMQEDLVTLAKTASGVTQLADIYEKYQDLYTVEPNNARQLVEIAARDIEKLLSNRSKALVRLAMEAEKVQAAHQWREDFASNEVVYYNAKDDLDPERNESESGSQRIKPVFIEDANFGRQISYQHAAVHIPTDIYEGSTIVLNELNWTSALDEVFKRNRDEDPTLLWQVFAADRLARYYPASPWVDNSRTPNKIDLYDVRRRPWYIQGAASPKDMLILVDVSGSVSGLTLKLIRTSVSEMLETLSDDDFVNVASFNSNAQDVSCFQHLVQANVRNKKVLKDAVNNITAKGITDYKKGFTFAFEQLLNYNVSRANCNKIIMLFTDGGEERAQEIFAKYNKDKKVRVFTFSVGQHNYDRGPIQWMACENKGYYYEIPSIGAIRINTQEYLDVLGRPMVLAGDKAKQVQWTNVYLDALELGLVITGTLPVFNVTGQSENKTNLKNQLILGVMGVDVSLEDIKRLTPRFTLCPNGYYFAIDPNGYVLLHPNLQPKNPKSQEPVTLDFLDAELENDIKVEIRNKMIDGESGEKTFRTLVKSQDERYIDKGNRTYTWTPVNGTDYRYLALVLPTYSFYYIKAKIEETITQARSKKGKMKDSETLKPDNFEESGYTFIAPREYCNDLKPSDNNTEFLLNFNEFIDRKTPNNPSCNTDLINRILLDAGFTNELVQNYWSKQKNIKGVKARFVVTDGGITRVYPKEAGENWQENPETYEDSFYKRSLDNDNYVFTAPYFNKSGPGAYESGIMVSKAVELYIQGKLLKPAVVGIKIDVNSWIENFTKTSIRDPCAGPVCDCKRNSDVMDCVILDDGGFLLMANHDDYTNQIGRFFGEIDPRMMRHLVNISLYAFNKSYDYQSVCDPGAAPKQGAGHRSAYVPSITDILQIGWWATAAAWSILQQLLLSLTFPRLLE
T1 sequence (P54290 945-1091 partner limits assumed): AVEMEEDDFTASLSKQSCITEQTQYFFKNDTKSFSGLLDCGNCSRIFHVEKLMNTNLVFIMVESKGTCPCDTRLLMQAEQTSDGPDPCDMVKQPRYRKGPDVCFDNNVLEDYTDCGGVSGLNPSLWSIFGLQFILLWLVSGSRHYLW
T1 sequence (P54283 whole entry partner): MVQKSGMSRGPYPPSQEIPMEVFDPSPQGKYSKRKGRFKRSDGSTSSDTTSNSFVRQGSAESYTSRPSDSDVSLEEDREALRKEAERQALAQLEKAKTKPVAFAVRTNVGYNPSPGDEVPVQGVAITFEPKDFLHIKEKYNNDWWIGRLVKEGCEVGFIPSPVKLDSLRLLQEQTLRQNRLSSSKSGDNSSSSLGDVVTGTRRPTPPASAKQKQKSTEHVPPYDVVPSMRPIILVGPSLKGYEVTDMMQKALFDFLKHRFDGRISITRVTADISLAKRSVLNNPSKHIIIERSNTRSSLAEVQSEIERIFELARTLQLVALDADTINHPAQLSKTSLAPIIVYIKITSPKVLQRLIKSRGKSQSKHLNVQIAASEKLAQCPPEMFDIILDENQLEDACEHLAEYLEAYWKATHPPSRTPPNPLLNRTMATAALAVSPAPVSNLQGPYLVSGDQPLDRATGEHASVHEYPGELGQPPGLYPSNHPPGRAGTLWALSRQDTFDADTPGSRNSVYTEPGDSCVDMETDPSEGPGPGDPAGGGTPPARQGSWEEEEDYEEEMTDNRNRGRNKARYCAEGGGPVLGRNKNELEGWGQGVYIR

Structure (SMILES) | IC50 [1] [nM] | IC50 [2] [nM]
CC(C)(C)c1cc(C(=O)N2CCN(C(=O)CCCCC(c3ccc(F)cc3)c3ccc(F)cc3)CC2)cc(C(C)(C)C)c1O [Compound P28] | 379 | 217
Fc1ccc(C(CCCCCN2CCN(c3nc4ccccc4s3)CC2)c2ccc(F)cc2)cc1 [Compound P32] | 345 | 245
COc1cc(CN2CCN(CCCCCCCCC(c3ccc(F)cc3)c3ccc(F)cc3)CC2)cc(OC)c1OC [Compound P40] | 286 | 214
COc1cc(C(=O)N2CCN(C(=O)CCCC(O)C(c3ccc(F)cc3)c3ccc(F)cc3)CC2)cc(OC)c1OC (stereo not shown) [Compound P44, 6,6-bis-(4-fluoro-phenyl)-5-hydroxy-1-[4-(3,4,5-trimethoxy-benzoyl)-piperazin-1-yl]-hexan-1-one] | 280 | 180
COc1cc(C(=O)N2CCN(C(=O)CCCCC(O)(c3ccc(F)cc3)c3ccc(F)cc3)CC2)cc(OC)c1OC [Compound P46, 6,6-bis-(4-fluoro-phenyl)-6-hydroxy-1-[4-(3,4,5,-trimethoxy-benzoyl)-piperazin-1-yl]-hexan-1-one] | 430 | 340
COc1cc(CN2CCN(C(=O)CCCCC(c3ccc(F)cc3)c3ccc(F)cc3)CC2=O)cc(OC)c1OC [Compound P48, 4-[6,6-bis-(4-fluoro-phenyl)-hexanoyl]-1-(3,4,5,-trimethoxy-benzyl)-piperazin-2-one] | 102 | 56
COc1c(C(C)(C)C)cc(CN2CCN(C(=O)CCCCC(c3ccc(F)cc3)c3ccc(F)cc3)CC2=O)cc1C(C)(C)C [Compound P52] | 400 | 370
O=C1CN(C(=O)CCCCC(c2ccc(F)cc2)c2ccc(F)cc2)CCN1CCOc1ccc(F)cc1 [Compound P53] | 200 | 980
COc1c(C(C)(C)C)cc(C(=O)N2CCN(CCCCCC(c3ccc(F)cc3)c3ccc(F)cc3)C(=O)C2)cc1C(C)(C)C [Compound P54] | 120 | 76
COc1c(C(C)(C)C)cc(C(=O)N2CCN(C(=O)CCCCC(c3ccc(F)cc3)c3ccc(F)cc3)CC2=O)cc1C(C)(C)C [Compound P55] | 190 | 150
CC(C)(C)c1cc(C(=O)N2CCN(C(=O)CCCCC(c3ccc(F)cc3)c3ccc(F)cc3)C(=O)C2)cc(C(C)(C)C)c1O [Compound P57] | 600 | 400
COc1ccc(OCCN2CCN(C(=O)CCCCC(c3ccc(F)cc3)c3ccc(F)cc3)CC2)cc1OC [Compound P59, 1-{4-[2-(3,4-dimethoxy-phenoxy)ethyl]-piperazin-1-yl}-6,6-bis-(4-fluoro-phenyl)-hexan-1-one] | 810 | 430
COc1ccc(OCCN2CCN(CCCCCC(c3ccc(F)cc3)c3ccc(F)cc3)CC2)cc1OC [Compound P60, 1-[6,6-bis-(4-fluoro-phenyl)-hexyl]-4-[2-(3,4,-dimethoxy-phenoxy)-ethyl]-piperazine] | 970 | 790
COc1cc(CN2CCN(CCCCCC(c3ccc(F)cc3)c3ccc(F)cc3)[C@@H](C(=O)O)C2)cc(OC)c1OC [Compound P61] | 610 | 520
CCOC(=O)C1CN(CCCCCC(c2ccc(F)cc2)c2ccc(F)cc2)CCN1Cc1cc(OC)c(OC)c(OC)c1 (stereo not shown) [Compound P62] | 680 | 410
COc1ccc(CN2CCN(CCCCCC(c3ccc(F)cc3)c3ccc(F)cc3)CC2)cc1OC [Compound P63] | 319 | 258
COc1ccc(C(=O)N2CCN(C(=O)CCCCC(c3ccc(F)cc3)c3ccc(F)cc3)CC2)cc1OC [Compound P64] | 541 | 390
Fc1ccc(C(CCCCCN2CCN(CCOc3ccc4c(c3)OCO4)CC2)c2ccc(F)cc2)cc1 [Compound P65] | 705 | 517

Structure (SMILES) | IC50 [1] [nM] | IC50 [2] [nM]
COc1cc(OCCN2CCN(CCCCCC(c3ccc(F)cc3)c3ccc(F)cc3)CC2)cc(OC)c1OC [Compound P66] | 800 | 550
Cc1cc(OC[C@@H](O)CN2CCN(CCCCCC(c3ccc(F)cc3)c3ccc(F)cc3)CC2)c(C)c(C)c1N [Compound P67] | 1050 | 928
Cc1cc(OC[C@@H](O)CN2CCN(C(=O)CCCCC(c3ccc(F)cc3)c3ccc(F)cc3)CC2)c(C)c(C)c1N [Compound P68] | 1580 | 975
O=C(CCCCC(c1ccc(F)cc1)c1ccc(F)cc1)N1CCN(c2nc3ccccc3s2)CC1 [Compound P69] | 502 | 410
Fc1ccc(C(CCCCCN2CCN(Cc3cc(C(F)(F)F)cc(C(F)(F)F)c3)CC2)c2ccc(F)cc2)cc1 [Compound P70] | 1040 | 1060
O=C(CCCCC(c1ccc(F)cc1)c1ccc(F)cc1)N1CCN(C(=O)c2cc(C(F)(F)F)cc(C(F)(F)F)c2)CC1 [Compound P71] | 870 | 510
CC(C)(C)c1ccc(C(=O)N2CCN(C(=O)CCCCC(c3ccc(F)cc3)c3ccc(F)cc3)CC2)cc1 [Compound P72] | 808 | 630
Fc1ccc(C(CCCCCN2CCN(Cc3ccc(Br)cc3)CC2)c2ccc(F)cc2)cc1 [Compound P73] | 439 | 377
Fc1ccc(C(CCCCCN2CCN(CCSc3nc4ccccc4s3)CC2)c2ccc(F)cc2)cc1 [Compound P74] | 660 | 430
COc1cc(C(=O)N2CCN(C(=O)CCCCC(c3ccc(F)cc3)c3ccc(F)cc3)CC2)cc(OC)c1O [Compound P75] | 839 | 603
Oc1c(Br)cc(CN2CCN(CCCCCC(c3ccc(F)cc3)c3ccc(F)cc3)CC2)cc1Br [Compound P76] | 680 | 514
Fc1ccc(C(CCCCCN2CCN(Cc3ccc(OC(F)(F)F)cc3)CC2)c2ccc(F)cc2)cc1 [Compound P77] | 280 | 220
COc1cc(CNCCN2CCN(CCCCCC(c3ccc(F)cc3)c3ccc(F)cc3)CC2)cc(OC)c1OC [Compound P78] | 64 | 30
O=C(CCCCC(c1ccc(F)cc1)c1ccc(F)cc1)N1CCN(CCOc2ccc(F)cc2)CC1 [Compound P79] | 579 | 423
O=C(CCCCC(c1ccc(F)cc1)c1ccc(F)cc1)N1CCN(CCNc2ccccc2)CC1 [Compound P80] | 960 | 660
COc1cc(CN2CCN(CCCCCC(c3ccc(F)cc3)c3ccc(F)cc3)CC2)cc(OC)c1O [Compound P101] | 277 | 203
COc1cc(CN2CCN(C(=O)CCCCCCCC(c3ccccc3)c3ccccc3)CC2)cc(OC)c1OC [Compound P102] | 419 | 292
